Laboratory results reported in patent US20250134855A1, “CO[…] AND METHODS OF USING SAME” (LYKOS THERAPEUTICS, INC., priority 2022, published 2025).
pIC50: −log10 of the molar value.

Assays:
[1] = biological target: human ether-à-go-go-related gene (hERG) potassium current (Homo sapiens, UniProt Q12809); assay: hERG potassium current inhibition
[2] = test system: participants with PTSD, eating disorder symptoms; assay: EAT-26 eating disorder psychopathology before and after MDMA-AT (Phase 3 trial NCT03537014); type: in vivo, human
Source text: The Eating Attitudes Test (EAT or EAT-26) is a standardized self-reported questionnaire of symptoms and concerns characteristic of eating disorders. The EAT-26 uses a six-point scale based on how often the individual engages in specific behaviors. The questions can be answered: Always, Usually, Often, Sometimes, Rarely, and Never. Completing the EAT-26 yields a “referral index” based on three criteria: 1) the total score based on the answers to the EAT-26 questions; 2) answers to the behavioral questions related to eating symptoms and weight loss, and 3) the individual's body mass index (BMI) calculated from their height and weight. In some cases, an individual can be recommended for additional care if the individual meets a “cut off” score or threshold on one or more criteria. For example, if an individual score higher than a 20, the individual should be referred to a qualified professional for potential diagnosis of an eating disorder. (See, for example, Garner, D. M., & Garfinkel, P. E. (1979). Psychological Medicine, 9, 273-279.)
Exploratory data on ED psychopathology were analyzed that were collected as part of a Phase 3 trial (trial ID: NCT03537014, which is herein incorporated by reference in its entirety), which was a double-blind randomized controlled study that compared efficacy and safety of MDMA-AT between placebo and MDMA groups for treatment of PTSD. EAT-26 was included as a pre-specified exploratory measure to assess participants' attitudes about eating and food in addition to the presence of previously undetected EDs. EAT-26 assessments were collected at baseline (visit 4) and study termination (visit 20). This self-reported questionnaire consists of 25 components, each rated on a six-point scale of 0 (Never) to 3 (Always), plus an additional component rated from 0 (Always) to 3 (Never). The […] item addresses occurrence and frequency of specific eating behaviors, such as binge eating. Scores were combined to produce a total EAT-26 score, ranging from 0 to 78, with lower values indicating fewer symptoms. Participants meeting a total cut-off score of 20 or greater are considered likely candidates for having an ED diagnosis and warrant referral to a qualified professional.
Among a total of 90 participants who were randomized and received treatment, 89 participants completed the EAT-26 assessment at baseline, and seven participants withdrew from the study and were missing follow-up data (3 MDMA, 4 placebo). A total of 82 of 90 participants (91.1%) completed both baseline and follow-up EAT-26 assessments and were included in the final analysis. This preliminary analysis of an exploratory measure included only completers of both EAT-26 scores at baseline and follow-up assessments to avoid imputation of data that would attenuate the accuracy of results. […] The baseline sample consisted of participants who were majority female (65.2%), identified as women (62.9%), non-Hispanic White or Latino (89.9%), college graduates (70.8%), and the mean (SD) age was 41.0 (12.00) years. In total, 17 participants had been prescribed sertraline, of which 8 and 9 were assigned to the MDMA and placebo treatment groups, respectively. Furthermore, 6 participants had been prescribed paroxetine, which were equally distributed between MDMA and placebo treatment groups (3 and 3, respectively). At baseline, BMI (kg/m2) scores were in the ‘normal’ range (BMI 18.5-24.9) in 56.2%, ‘overweight’ (BMI 25.0-29.9) in 28.1%, and ‘obese’ (BMI≥30) in 15.7% of participants. There were no treatment group differences in demographic variables or baseline ACE, BDI-II, CAPS-5, or lifetime C-SSRS assessments. Mean BMI (SD) was 26.0 (4.8) kg/m2 in the MDMA-AT group and 24.8 (4.2) kg/m2 in the PLAC-AT group (t=1.3, p=. 2).

Sequence of human ether-à-go-go-related gene (hERG) potassium current (Q12809 whole entry): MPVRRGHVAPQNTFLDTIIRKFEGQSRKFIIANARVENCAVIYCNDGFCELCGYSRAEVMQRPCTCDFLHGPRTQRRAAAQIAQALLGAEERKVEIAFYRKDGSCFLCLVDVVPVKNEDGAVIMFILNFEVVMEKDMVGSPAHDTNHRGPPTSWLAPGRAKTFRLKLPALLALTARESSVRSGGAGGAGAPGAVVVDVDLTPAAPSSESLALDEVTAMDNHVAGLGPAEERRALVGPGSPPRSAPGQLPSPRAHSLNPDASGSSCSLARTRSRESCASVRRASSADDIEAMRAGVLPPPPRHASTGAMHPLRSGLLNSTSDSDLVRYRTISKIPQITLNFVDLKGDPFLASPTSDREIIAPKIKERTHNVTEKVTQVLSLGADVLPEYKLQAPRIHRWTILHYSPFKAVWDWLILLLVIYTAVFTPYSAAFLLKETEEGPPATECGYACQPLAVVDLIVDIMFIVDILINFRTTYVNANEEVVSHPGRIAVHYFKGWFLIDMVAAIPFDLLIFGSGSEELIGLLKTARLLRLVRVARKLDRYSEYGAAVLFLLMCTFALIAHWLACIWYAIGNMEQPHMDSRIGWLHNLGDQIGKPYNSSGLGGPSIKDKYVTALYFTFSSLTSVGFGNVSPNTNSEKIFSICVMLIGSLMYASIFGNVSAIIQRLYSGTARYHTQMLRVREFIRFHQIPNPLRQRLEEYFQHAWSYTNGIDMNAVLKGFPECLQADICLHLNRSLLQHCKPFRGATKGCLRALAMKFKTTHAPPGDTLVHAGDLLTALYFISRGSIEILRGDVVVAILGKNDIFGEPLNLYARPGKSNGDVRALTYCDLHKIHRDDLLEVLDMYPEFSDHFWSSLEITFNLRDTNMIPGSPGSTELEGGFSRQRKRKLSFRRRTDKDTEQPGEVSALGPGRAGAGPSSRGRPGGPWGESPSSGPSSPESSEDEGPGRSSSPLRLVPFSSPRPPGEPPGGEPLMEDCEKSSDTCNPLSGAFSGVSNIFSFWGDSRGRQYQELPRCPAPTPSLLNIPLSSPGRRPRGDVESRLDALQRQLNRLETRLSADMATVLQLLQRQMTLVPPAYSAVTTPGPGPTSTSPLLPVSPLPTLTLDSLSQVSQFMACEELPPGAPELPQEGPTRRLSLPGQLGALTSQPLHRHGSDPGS

CNC(C)Cc1ccc2c(c1)OCO2 (stereo not drawn) [MDMA, 3,4-methylenedioxymethamphetamine]
pIC50 [1]: 3.69
Hill coefficient, hERG ([1]; human): 1.1
margin of hERG IC50 over clinical plasma concentration ([1]; supratherapeutic single dose of 180 mg MDMA HCl): 111 x
Cohen's d, EAT-26 reduction MDMA vs placebo ([2]; baseline EAT-26≥11 subset): 0.52
RCI score, EAT-26 ([2]; baseline EAT-26≥11 subset): −2.16
within-subject mean (SD) reduction in EAT-26 scores ([2]; baseline EAT-26≥11 subset): −9.58 (7.59)
RCI score, EAT-26 ([2]; baseline EAT-26≥20 subset): −2.83
within-subject mean reduction in EAT-26 scores ([2]; baseline EAT-26≥20 subset): −14.08
participants with EAT-26≥20 at follow-up ([2]; reduced from 5 (11.90%) at baseline): 2.38%
within-subject mean (SD) reduction in EAT-26 scores, baseline to follow-up ([2]; total sample): −3.04 (6.24)
Hedge's g, EAT-26 change scores MDMA vs placebo ([2]; total sample, adjusted for baseline): 0.33
RCI score, EAT-26 ([2]; women with EAT-26≥11): −2.90
Hedge's g, EAT-26 change scores MDMA vs. placebo ([2]; women with baseline EAT-26≥11): 0.63
Hedge's g, EAT-26 change scores MDMA vs. placebo ([2]; women with baseline EAT-26≥20): 0.60
RCI, change in EAT-26 score ([2]; women with baseline EAT-26≥20, group not given): −18.80
